Read-outs that look alike come from different tables or passages of the source. Numbered stars: 1 amine (or outer) side, 2 acyl side, 3 side chain; on linkers, the order of the positions; unused ones are H or OH. Bridge positions count the residues as written; N and C are the ends. Peptide text beside a SMILES is read from it. * marks the point of attachment. C20 diacid = O=C(O)CCCCCCCCCCCCCCCCCCC(=O)*; γGlu = O=C(O)[C@H](CCC(=O)[*:2])N[*:1]; AEEA = NCCOCCOCC(=O)O
How the values were obtained:
hCTR = target: T1, hCTR (Homo sapiens, UniProt P30988); experiment: cAMP-responsive element luciferase reporter assay, human CTR; format: cell-based; details: luciferase (human receptor assay)
T1 sequence (P30988 25-474): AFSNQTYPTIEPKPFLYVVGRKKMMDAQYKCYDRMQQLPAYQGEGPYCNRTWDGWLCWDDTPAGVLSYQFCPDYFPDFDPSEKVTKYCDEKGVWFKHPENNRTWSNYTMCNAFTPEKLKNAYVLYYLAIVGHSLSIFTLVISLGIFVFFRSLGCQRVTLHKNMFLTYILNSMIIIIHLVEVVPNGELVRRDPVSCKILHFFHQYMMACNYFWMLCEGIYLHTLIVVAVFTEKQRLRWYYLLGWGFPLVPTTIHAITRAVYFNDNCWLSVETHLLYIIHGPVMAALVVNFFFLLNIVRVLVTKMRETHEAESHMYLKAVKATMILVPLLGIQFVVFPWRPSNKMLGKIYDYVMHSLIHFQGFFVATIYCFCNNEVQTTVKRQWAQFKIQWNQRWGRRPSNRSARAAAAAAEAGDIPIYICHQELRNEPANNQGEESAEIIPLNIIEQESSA

rats = experiment: Acute food intake in rats; format: in vivo, rat; details: single sc injection of 30 nmol/kg, relative to vehicle, mean ± SEM, n = 5–7 per group
rAMY3R = target: T2, rAMY3R (Rattus norvegicus, UniProt P32214+Q9JJ73); experiment: scintillation proximity binding assay, rAMY3R membranes; design: expressed in transfected cells; host or cells: BHK tk-ts 13, transient co-transfection (FuGENE 6); details: for rAMY3R pIC50: SPA binding assay, Tables S13 and S15; for ratio rCTR/rAMY3R: ratio of binding IC50 values
T2 sequence (P32214 25-479 isoform P32214-2 limits assumed): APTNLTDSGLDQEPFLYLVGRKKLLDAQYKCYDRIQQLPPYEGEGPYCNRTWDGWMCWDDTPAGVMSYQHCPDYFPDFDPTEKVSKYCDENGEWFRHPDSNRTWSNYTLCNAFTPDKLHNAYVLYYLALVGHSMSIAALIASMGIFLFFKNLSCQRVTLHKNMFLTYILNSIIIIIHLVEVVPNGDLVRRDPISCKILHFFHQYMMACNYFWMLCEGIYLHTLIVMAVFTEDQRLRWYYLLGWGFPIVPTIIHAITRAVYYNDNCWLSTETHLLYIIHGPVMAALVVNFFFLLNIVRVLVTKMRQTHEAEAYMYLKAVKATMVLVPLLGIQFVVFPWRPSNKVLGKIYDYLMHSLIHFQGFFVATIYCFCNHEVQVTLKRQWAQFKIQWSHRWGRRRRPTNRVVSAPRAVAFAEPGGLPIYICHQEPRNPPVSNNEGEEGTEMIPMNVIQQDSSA
T2 sequence (Q9JJ73 23-147 partner): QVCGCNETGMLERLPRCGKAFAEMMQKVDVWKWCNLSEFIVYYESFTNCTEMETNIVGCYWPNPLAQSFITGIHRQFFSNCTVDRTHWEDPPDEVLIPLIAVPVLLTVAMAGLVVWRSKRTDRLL
Description: The apparent binding affinities were determined using a scintillation proximity assay with beads from PerkinElmer and cell membranes containing the AMY3R or CTRs. […] Membranes were harvested and membranes were prepared and kept at −80 °C until use. The assay was performed in a 384-well Optiplate (PerkinElmer). Membranes were mixed with scintillation proximity assay beads in a 1:1 ratio. […] Samples were analyzed on a TopCounter (Packard). The IC50 values were calculated using GraphPad Prism. See Supporting Information S7: SAR Screening Assay Methods (Binding Assays (Human and Rat)) for more information.
Binding Assays (Human and Rat). Brief descriptions of the methods used to determine binding affinities for SAR analysis are described below. Curves and IC50 values were plotted and calculated in GraphPad Prism using nonlinear regression (one site binding competition analysis), with pIC50 values […]
values were used to calculate the binding affinity ratios in order to express the selectivity of compounds for the AMY3R versus the CTR.
CTR Binding Assay. The binding assay was performed using scintillation proximity assay (SPA) beads (RPNQ0001) from PerkinElmer and cell membranes containing either the hCTR or rCTR. BHK […]
(§1) Membranes were prepared in the following way: the cells were rinsed with PBS and incubated with Versene for approximately 5 min before harvesting. The cells were flushed with PBS and the cell-suspension was centrifuged for 5 min at 1000 rpm. Cells were homogenized (Ultra Turrax) in a buffer […]
containing 20 mM Na-HEPES and 0.1 mM EDTA (pH 7.4, buffer 2). The resulting pellet was re-suspended in buffer 2 and protein concentration was measured (BCA protein assay, Pierce). The homogenate was kept cold during the whole procedure. The membranes were stored at –80 °C until […]
The binding assay was performed in a 384-well Optiplate (PerkinElmer) in a total volume of 40 μL.
Membranes were mixed with SPA beads in a 1:1 ratio. […]
mg/well. Test compounds were dissolved in DMSO and further diluted in assay buffer (50 mM HEPES, pH 7.4, 1 mM CaCl2, 5 mM MgCl2, 0.1% ovalbumin, and 0.02% Tween-20).
Calcitonin (NEX422 PerkinElmer) was dissolved in assay buffer and added to the Optiplate at a final […]
prior to centrifugation (1500 rpm, 10 min). Samples were analyzed on TopCounter (Packard).
AMY3R Binding Assay. The binding assay was performed using SPA beads (RPNQ0001) from PerkinElmer and cell membranes containing either the hAMY3R or rAMY3R. BHK tk-ts 13 cells were […]
as §1, with “and cultured as described above. Membranes” for “Membranes”, “buffer containing 20 mM Na-HEPES and 10 mM EDTA (pH 7.4), and” for “buffer”
The resulting pellet was re-suspended, homogenized, and
7.4, buffer 2). The resulting pellet was re-suspended in buffer 2 and protein concentration was measured (BCA protein assay, Pierce). The homogenate was kept cold during the whole procedure.
The membranes were stored at –80 °C until use.
Membranes were mixed with SPA beads in a 1:1 ratio. The final concentration of SPA beads was 0.05 mg/well. Test compounds were dissolved in DMSO and further diluted in assay buffer (50 mM […]
rAMY (NEX448 PerkinElmer) was dissolved in assay buffer and added to the Optiplate at a final

hCTR pEC50 (hCTR; Tables S12 and S14) | rAMY3R pIC50 (rAMY3R) | IC50 (rAMY3R; SPA, BHK cell membranes, 125I-rat amylin, 120 min 25 °C, read-out: rAMY3R IC50) | ratio rCTR/rAMY3R (rAMY3R) | EC50 (hCTR; Tables S12 and S14, read-out: hCTR pEC50 (converted)) | EC50 (hCTR; BHK cells stably expressing hCTR and CRE-luciferase, 3 h, 37 °C, 10% FBS, read-out: hCTR EC50) | Structure (SMILES) | Acute food intake reduction 0–24 h (rats) | Acute food intake reduction 24–48 h (rats)
8.60 | 8.75 | 1.77 nM | 55 | – | – | CC[C@H](C)[C@H](NC(=O)[C@H](C)NC(=O)CNC(=O)[C@H](Cc1ccccc1)NC(=O)[C@H](CC(N)=O)NC(=O)[C@@H]1CCCN1C(=O)[C@H](CO)NC(=O)[C@H](CO)NC(=O)[C@H](Cc1c[nH]cn1)NC(=O)[C@H](CCCNC(=N)N)NC(=O)[C@H](CC(C)C)NC(=O)[C@H](Cc1ccccc1)NC(=O)[C@H](CC(N)=O)NC(=O)[C@H](C)NC(=O)[C@H](CC(C)C)NC(=O)[C@H](CCCNC(=N)N)NC(=O)[C@H](CCC(N)=O)NC(=O)[C@@H](NC(=O)[C@H](C)NC(=O)[C@@H]1CSSC[C@H](NC(=O)[C@H](CCCCN)NC(=O)CC[C@H](NC(=O)CCCCCCCCCCCCCCCCCCC(=O)O)C(=O)O)C(=O)N[C@@H](CC(N)=O)C(=O)N[C@@H]([C@@H](C)O)C(=O)N[C@@H](C)C(=O)N[C@@H]([C@@H](C)O)C(=O)N1)[C@@H](C)O)C(=O)N1CCC[C@H]1C(=O)N[C@@H](CO)C(=O)N[C@@H](CO)C(=O)N[C@H](C(=O)N[C@@H](CC(N)=O)C(=O)N[C@H](C(=O)NCC(=O)N[C@@H](CCCNC(=N)N)C(=O)N[C@@H](CC(N)=O)C(=O)N[C@H](C(=O)N[C@@H](Cc1ccc(O)cc1)C(N)=O)[C@@H](C)O)C(C)C)[C@@H](C)O [Peptide 16] | 32 ± 4% | 4 ± 5%
– | 9.75 | – | 34 | 0.316 nM | 0.314 nM | CC[C@H](C)[C@H](NC(=O)[C@H](C)NC(=O)CNC(=O)[C@H](Cc1ccccc1)NC(=O)[C@H](CC(N)=O)NC(=O)[C@@H]1CCCN1C(=O)[C@H](CO)NC(=O)[C@H](CO)NC(=O)[C@H](Cc1c[nH]cn1)NC(=O)[C@H](CCCNC(=N)N)NC(=O)[C@H](CC(C)C)NC(=O)[C@H](Cc1ccccc1)NC(=O)[C@H](CCC(=O)O)NC(=O)[C@H](C)NC(=O)[C@H](CC(C)C)NC(=O)[C@H](CCCNC(=N)N)NC(=O)[C@H](CCC(N)=O)NC(=O)[C@@H](NC(=O)[C@H](C)NC(=O)[C@@H]1CSSC[C@H](NC(=O)[C@H](CCCCN)NC(=O)CC[C@H](NC(=O)CCCCCCCCCCCCCCCCCCC(=O)O)C(=O)O)C(=O)N[C@@H](CC(N)=O)C(=O)N[C@@H]([C@@H](C)O)C(=O)N[C@@H](C)C(=O)N[C@@H]([C@@H](C)O)C(=O)N1)[C@@H](C)O)C(=O)N1CCC[C@H]1C(=O)N[C@@H](CO)C(=O)N[C@@H](CO)C(=O)N[C@H](C(=O)N[C@@H](CC(N)=O)C(=O)N[C@H](C(=O)NCC(=O)N1CCC[C@H]1C(=O)N[C@@H](CC(N)=O)C(=O)N[C@H](C(=O)N[C@@H](Cc1ccc(O)cc1)C(N)=O)[C@@H](C)O)C(C)C)[C@@H](C)O [Peptide 12] ({C20 diacid-γGlu}-KCNTATCATQRLAEFLRHSSPNFGAIPSSTNVGPNTY-NH2; disulfide 2-7) | – | 7 ± 7%
– | – | – | 57 | – | – | CC[C@H](C)[C@H](NC(=O)[C@H](C)NC(=O)CNC(=O)[C@H](Cc1ccccc1)NC(=O)[C@H](CC(N)=O)NC(=O)[C@@H]1CCCN1C(=O)[C@H](CO)NC(=O)[C@H](CO)NC(=O)[C@H](Cc1c[nH]cn1)NC(=O)[C@H](CCCNC(=N)N)NC(=O)[C@H](CC(C)C)NC(=O)[C@H](Cc1ccccc1)NC(=O)[C@H](CC(N)=O)NC(=O)[C@H](C)NC(=O)[C@H](CC(C)C)NC(=O)[C@H](CCCNC(=N)N)NC(=O)[C@H](CCC(N)=O)NC(=O)[C@@H](NC(=O)[C@H](C)NC(=O)[C@@H]1CSSC[C@H](NC(=O)[C@H](CCCCN)NC(=O)COCCOCCNC(=O)CC[C@H](NC(=O)CCCCCCCCCCCCCCCCCCC(=O)O)C(=O)O)C(=O)N[C@@H](CC(N)=O)C(=O)N[C@@H]([C@@H](C)O)C(=O)N[C@@H](C)C(=O)N[C@@H]([C@@H](C)O)C(=O)N1)[C@@H](C)O)C(=O)N1CCC[C@H]1C(=O)N[C@@H](CO)C(=O)N[C@@H](CO)C(=O)N[C@H](C(=O)N[C@@H](CC(N)=O)C(=O)N[C@H](C(=O)NCC(=O)N[C@@H](CO)C(=O)N[C@@H](Cc1c[nH]cn1)C(=O)N[C@H](C(=O)N[C@@H](Cc1ccc(O)cc1)C(N)=O)[C@@H](C)O)C(C)C)[C@@H](C)O [Peptide 18] ({C20 diacid-γGlu-AEEA}-KCNTATCATQRLANFLRHSSPNFGAIPSSTNVGSHTY-NH2; disulfide 2-7; N-terminus assumed) | – | 3 ± 6%
8.88 | 9.69 | – | 84 | – | – | CC[C@H](C)[C@H](NC(=O)[C@H](C)NC(=O)CNC(=O)[C@H](Cc1ccccc1)NC(=O)[C@H](CC(N)=O)NC(=O)[C@@H]1CCCN1C(=O)[C@H](CO)NC(=O)[C@H](CO)NC(=O)[C@H](Cc1c[nH]cn1)NC(=O)[C@H](CCCNC(=N)N)NC(=O)[C@H](CC(C)C)NC(=O)[C@H](Cc1ccccc1)NC(=O)[C@H](CC(N)=O)NC(=O)[C@H](C)NC(=O)[C@H](CC(C)C)NC(=O)[C@H](CCCNC(=N)N)NC(=O)[C@H](CCC(N)=O)NC(=O)[C@@H](NC(=O)[C@H](C)NC(=O)[C@@H]1CSSC[C@H](NC(=O)[C@H](CCCNC(=N)N)NC(=O)CNC(=O)CC[C@H](NC(=O)CCCCCCCCCCCCCCCCCCC(=O)O)C(=O)O)C(=O)N[C@@H](CC(N)=O)C(=O)N[C@@H]([C@@H](C)O)C(=O)N[C@@H](C)C(=O)N[C@@H]([C@@H](C)O)C(=O)N1)[C@@H](C)O)C(=O)N1CCC[C@H]1C(=O)N[C@@H](CO)C(=O)N[C@@H](CO)C(=O)N[C@H](C(=O)N[C@@H](CC(N)=O)C(=O)N[C@H](C(=O)NCC(=O)N[C@@H](CO)C(=O)N[C@@H](Cc1c[nH]cn1)C(=O)N[C@H](C(=O)N[C@@H](Cc1ccc(O)cc1)C(N)=O)[C@@H](C)O)C(C)C)[C@@H](C)O [Peptide 19] ({C20 diacid-γGlu}-GRCNTATCATQRLANFLRHSSPNFGAIPSSTNVGSHTY-NH2; disulfide 3-8) | – | 6 ± 7%
